The text below walks through data of article PMC3774141 (Bioorganic & medicinal chemistry letters, 2013).

SMILES strings stand for the structures.

The IC50 is the point on the concentration scale where inhibition reaches its midpoint.

One test deals with tubulin. The test can be described thus: inhibition of tubulin polymerization. In kind it is biochemical.
In test [1] the test system is human cancer cell lines (HeLa, A549, H1299, MCF-7). The test can be described thus: antiproliferative activity, cancer cell lines tested. In kind it is cell-based. The following applies: read-out: IC50 against the cancer cell lines tested.
The subject of test [2] is breast adenocarcinoma (MCF-7). Conditions: read-out: IC50 MCF-7; values taken from the literature for comparison; cited from earlier work.
Test [3] concerns human non-small-cell lung carcinoma (A549). The following applies: read-out: IC50 A549; values taken from the literature for comparison; cited from earlier work.
For test [4], the system named is human cervix carcinoma (HeLa). Conditions: read-out: IC50 HeLa; values taken from the literature for comparison; cited from earlier work.

For `COc1ccc(-c2nnnn2-c2cc(OC)c(OC)c(OC)c2O)cc1` [Compound 5b], in the test on tubulin, the “inhibitors of tubulin polymerization (result in words)” value was “inactive”. The half-inhibitory concentration (IC50) in test [1] is above 45000 nM.
Consider `COc1ccc(-c2nnnn2-c2cc(OC)c(OC)c(OC)c2O)c(O)c1` [Compound 5a], for which the “inhibitors of tubulin polymerization (result in words)” value with tubulin was “inactive”. For the same compound, the half-inhibitory concentration (IC50) in test [1] is above 45000 nM.
As for `COc1ccc(-c2nnnn2-c2cc(OC)c(OC)c(OC)c2)cc1` [Compound 5f], the figures for the IC50 in test [2], in test [3] and in test [4] were 38.5 ± 5.8 nM, 222 ± 59 nM and 2.6 nM, respectively.
